The record followed here is patent US11708348B2, “Protease inhibitors for treatment of coronavirus infections” (The Scripps Research Institute, priority 2021, dated 2023).

The structures appear in SMILES notation. Where only a bound is given, the exact number is not on record here.

For one assay, the system named is SARS-CoV-2 strain USA-WA1/2020. In words: microbe, parasite or virus in culture. Format: cell-based. The note with it: Severe acute respiratory syndrome coronavirus 2, HeLa-ACE2, 24 h, HeLa-ACE2 cells, SARS-CoV-2 infection, 24 h; read-out: EC50, uM (Hela).
In general, EC50 refers to the midpoint of the concentration-response curve. `CC(C)C[C@@H](O)C(=O)N1CCC(C)(C)C[C@H]1C(=O)N[C@@H](C[C@@H]1CCNC1=O)C(=O)COC(F)(F)F` [Compound 641, (S)-1-((R)-2-hydroxy-4-methylpentanoyl)-4,4-dimethyl-N-((S)-3-oxo-1-((S)-2-oxopyrrolidin-3-yl)-4-(trifluoromethoxy)butan-2-yl)piperidine-2-carboxamide]: the EC50 was less than 0.05 µM.

Take `CC(C)C[C@@H](O)C(=O)N1C2CCC(CC2)[C@H]1C(=O)N[C@@H](C[C@@H]1CCNC1=O)C(=O)COC(F)(F)F` [Compound 642, (S)-2-((R)-2-hydroxy-4-methylpentanoyl)-N-((S)-3-oxo-1-((S)-2-oxopyrrolidin-3-yl)-4-(trifluoromethoxy)butan-2-yl)-2-azabicyclo[2.2.2]octane-3-carboxamide]: the EC50 was less than 0.05 µM.

Regarding `CC(C)C[C@@H](NC(=O)OC(C)(C)C)C(=O)N1CC2(CC2)C[C@H]1C(=O)N[C@@H](C[C@@H]1CCNC1=O)C(=O)COC(F)(F)F` [Compound 643, tert-butyl ((R)-4-methyl-1-oxo-1-((S)-6-(((S)-3-oxo-1-((S)-2-oxopyrrolidin-3-yl)-4-(trifluoromethoxy)butan-2-yl)carbamoyl)-5-azaspiro[2.4]heptan-5-yl)pentan-2-yl)carbamate], the EC50 was less than 0.05 µM.

In the case of `CC(C)C[C@@H](N)C(=O)N1CC2(CC2)C[C@H]1C(=O)N[C@@H](C[C@@H]1CCNC1=O)C(=O)COC(F)(F)F` [Compound 644, (S)-5-(D-leucyl)-N-((S)-3-oxo-1-((S)-2-oxopyrrolidin-3-yl)-4-(trifluoromethoxy)butan-2-yl)-5-azaspiro[2.4]heptane-6-carboxamide], the EC50 is 0.2 to 0.5 µM.

`CC(C)C[C@H](C(=O)N1CC2(CC2)C[C@H]1C(=O)N[C@@H](C[C@@H]1CCNC1=O)C(=O)COC(F)(F)F)N(C)C(=O)OC(C)(C)C` [Compound 645, tert-butyl methyl((R)-4-methyl-1-oxo-1-((S)-6-(((S)-3-oxo-1-((S)-2-oxopyrrolidin-3-yl)-4-(trifluoromethoxy)butan-2-yl)carbamoyl)-5-azaspiro[2.4]heptan-5-yl)pentan-2-yl)carbamate]: the EC50 lay in the range of 0.05 to 0.2 µM.

With `COC1(C(=O)N2CC3(CC3)C[C@H]2C(=O)N[C@@H](C[C@@H]2CCNC2=O)C(=O)COC(F)(F)F)CCC(F)(F)CC1` [Compound 646, (S)-5-(4,4-difluoro-1-methoxycyclohexane-1-carbonyl)-N-((S)-3-oxo-1-((S)-2-oxopyrrolidin-3-yl)-4-(trifluoromethoxy)butan-2-yl)-5-azaspiro[2.4]heptane-6-carboxamide], the EC50 was less than 0.05 µM.

For `CC(C)OCC(=O)N1CC2(CC2)C[C@H]1C(=O)N[C@@H](C[C@@H]1CCNC1=O)C(=O)COC(F)(F)F` [Compound 647, (888S)-5-(2-isopropoxyacetyl)-N-((S)-3-oxo-1-((S)-2-oxopyrrolidin-3-yl)-4-(trifluoromethoxy)butan-2-yl)-5-azaspiro[2.4]heptane-6-carboxamide], the EC50 is 0.05 to 0.2 µM.

As to `O=C1NCC[C@H]1C[C@H](NC(=O)[C@@H]1CC2(CC2)CN1C(=O)Cc1ccccc1)C(=O)COC(F)(F)F` [Compound 648, (S)-N-((S)-3-oxo-1-((S)-2-oxopyrrolidin-3-yl)-4-(trifluoromethoxy)butan-2-yl)-5-(2-phenylacetyl)-5-azaspiro[2.4]heptane-6-carboxamide], the concentration giving a half-maximal response (EC50) is less than 0.05 µM.

Regarding `O=C1NCC[C@H]1C[C@H](NC(=O)[C@@H]1CC2(CC2)CN1C(=O)C1(O)CCC(C(F)(F)F)CC1)C(=O)COC(F)(F)F` (stereo partly drawn) [Compound 649, (S)-5-(l-hydroxy-4-(trifluoromethyl)cyclohexane-1-carbonyl)-N-((S)-3-oxo-1-((S)-2-oxopyrrolidin-3-yl)-4-(trifluoromethoxy)butan-2-yl)-5-azaspiro[2.4]heptane-6-carboxamide], the EC50 was in the range of 0.05 to 0.2 µM.

For `CSCC[C@H](NC(=O)[C@H](CC(C)C)NC(=O)C(=O)Nc1ccccc1F)C(=O)COc1c(F)c(F)cc(F)c1F` [Compound 654, N1-(2-fluorophenyl)-N2-((S)-4-methyl-1-(((S)-5-(methylthio)-2-oxo-1-(2,3,5,6-tetrafluorophenoxy)pentan-3-yl)amino)-1-oxopentan-2-yl)oxalamide], the EC50 is 0.5 to 1 µM.

For the compound `CC(C)C[C@H](NC(=O)C(=O)Nc1ccccc1F)C(=O)N[C@@H](CCS(C)(=O)=O)C(=O)COc1c(F)c(F)cc(F)c1F` [Compound 655, N1-(2-fluorophenyl)-N2-((S)-4-methyl-1-(((S)-5-(methylsulfonyl)-2-oxo-1-(2,3,5,6-tetrafluorophenoxy)pentan-3-yl)amino)-1-oxopentan-2-yl)oxalamide], the EC50 lay within 0.5 to 1 µM.

Turning to `O=C(NC1(C(F)(F)F)CC1)C(=O)N1C[C@@H]2CCC[C@@H]2[C@H]1C(=O)N[C@@H](C[C@@H]1CCNC1=O)C(=O)COC(F)(F)F` [Compound 656, (1S,3aR,6aS)-N-((S)-3-oxo-1-((S)-2-oxopyrrolidin-3-yl)-4-(trifluoromethoxy)butan-2-yl)-2-(2-oxo-2-((1-(trifluoromethyl)cyclopropyl)amino)-acetyl)octahydrocyclopenta[c]pyrrole-1-carboxamide], the EC50 is 0.05 to 0.2 µM.

Take `CC(C)(C)NC(=O)C(=O)N1CC2(CCCC2)CC1C(=O)N[C@@H](C[C@@H]1CCNC1=O)C(=O)COC(F)(F)F` (stereo partly drawn) [Compound 657, 2-(2-(tert-butylamino)-2-oxoacetyl)-N-((S)-3-oxo-1-((S)-2-oxopyrrolidin-3-yl)-4-(trifluoromethoxy)butan-2-yl)-2-azaspiro[4.4]nonane-3-carboxamide]: the EC50 was less than 0.05 µM.

For the compound `CC(C)(C)C[C@@H](O)C(=O)N1CC2(CC2)C[C@H]1C(=O)N[C@@H](C[C@@H]1CCNC1=O)C(=O)COC(F)(F)F` [Compound 658, (S)-5-((R)-2-hydroxy-4,4-dimethylpentanoyl)-N-((S)-3-oxo-1-((S)-2-oxopyrrolidin-3-yl)-4-(trifluoromethoxy)butan-2-yl)-5-azaspiro[2.4]heptane-6-carboxamide], the EC50 is less than 0.05 µM.

With `O=C1NCC[C@H]1C[C@H](NC(=O)[C@@H]1[C@H]2CCC[C@H]2CN1C(=O)c1noc2ccc(Cl)cc12)C(=O)COC(F)(F)F` [Compound 659, (1S,3aR,6aS)-2-(5-chlorobenzo[d]isoxazole-3-carbonyl)-N-((S)-3-oxo-1-((S)-2-oxopyrrolidin-3-yl)-4-(trifluoromethoxy)butan-2-yl)octahydrocyclopenta[c]pyrrole-1-carboxamide], the EC50 was less than 0.05 µM.

The same assay, now with this note: Severe acute respiratory syndrome coronavirus 2, HeLa-ACE2, 24 h; read-out: EC50, uM (Hela).
For `CC(C)C[C@H](NC(=O)C(=O)Nc1ccccc1F)C(=O)N[C@@H](C[C@@H]1CCNC1=O)C(=O)COP(C)(=O)c1ccccc1` (stereo partly drawn) [Compound 651, (S)-3-((S)-2-(2-((2-fluorophenyl)amino)-2-oxoacetamido)-4-methylpentanamido)-2-oxo-4-((S)-2-oxopyrrolidin-3-yl)butyl methyl(phenyl)phosphinate], the EC50 was 0.05 to 0.2 µM.

For `CC(C)C[C@H](NC(=O)C(=O)Nc1ccccc1)C(=O)N[C@@H](C[C@@H]1CCNC1=O)C(=O)COP(C)(=O)c1ccccc1` (stereo partly drawn) [Compound 653, (S)-3-((S)-4-methyl-2-(2-oxo-2-(phenylamino)acetamido)pentanamido)-2-oxo-4-((S)-2-oxopyrrolidin-3-yl)butyl methyl(phenyl)phosphinate], the EC50 lay in the range of 0.2 to 0.5 µM.
